{"source": "patent US4416885A", "about": "“Use of isopropylaminopyrimidine in the chemotherapy of muscular dystrophy, myopathy and myotonia” (priority 1982, dated 1983)", "type_in_all_cases": "in vivo, chicken", "key": {"[1]": {"tested_on": "plasma AChE (acetylcholinesterase)", "assay": "Plasma AChE", "set-up": "AChE: unit not given here", "procedure": "Chemotherapy was assessed by application of seven different parameters: physical tests of muscular disability, namely the flip test and wing apposition (W.A.) measurements; biochemical assays of serum and muscle enzume levels of creatine phosphokinase (CPK), pyruvate kinase (PK) and acetylcholinesterase (AChE); and histological comparisons of treated and untreated muscle. Toxicity studies (weight loss, etc.) were also used. A very comprehensive profile of the drug was thus obtained which related to all the known, highly characteristic features of the disease which are applicable to both the animal model and the human.\nThe elevation of this enzyme in the dystrophic chicken occurs from 8 days and reaches a plateau at 100 days, compared to the normal animal where the levels continue to decline slowly. […]\nFinally, oral therapy with IAPP was undertaken at gradually increasing dosages up to 1 g/Kg/day. The parameters (physical, biochemical and histological) measured previously were again used to test the efficacy of the drug; five different dosages were used orally, each being given for 30-60 days, daily (Tables VII-XI). A total of 75 animals were treated in the current study with IAPP and 70 control animals were used."}, "[2]": {"tested_on": "dystrophic New Hampshire chickens, line 413", "assay": "Toxicity (weight change, other symptoms) in dystrophic chickens", "procedure": "Weight measurements are taken weekly, weight loss, diarrhea or any other symptoms are noted. No drugs have yet been described for dystrophy with a beneficial effect without an accompanying weight loss.\nThe drug was administered daily in water, injected intra-peritoneally, the amount being adjusted on a weekly basis according to the animal's weight."}, "dystrophic chickens 413 [3]": {"tested_on": "dystrophic chickens 413", "assay": "Experiment 4, flip test (25 flips), dystrophic chickens", "procedure": "(§1) All chickens were injected with 50 mg/Kg IAPP and weighed approximately every second or third day.\n(§2) B, C, D: Experimental-injected with 50 mg/Kg IAPP"}, "[4]": {"tested_on": "dystrophic 413 muscle explants", "assay": "Microtubule complexes in muscle explants of injected dystrophic chickens", "source_text": "Essentially, these experiments were divided into three subgroups, taken from the previous Table:\n413A, 413B, 412A, 412B: All were sacrificed after 4 injections and muscle explants placed in culture.\n413C, 412C: All were sacrificed after 8 injections and muscle explants were placed in culture.\n413D, 412D: All were sacrificed after 10 injections and muscle explants placed in culture.\nAll explants were placed in CMRL culture medium containing 5% horse serum, 15% fetal bovine serum and 1% antibiotics and allowed to grow for 5-7 days before being fixed and observed for the presence or absence of microtubules. No IAPP was added to the culture medium during the 5-7 days in culture."}, "dystrophic chickens 413 [5]": {"tested_on": "dystrophic chickens 413", "assay": "Experiment 4, weight of dystrophic chickens injected with IAPP", "details": "for Weight: 50 mg/Kg", "procedure": "as §1\nA: Control-injected with PBS\nas §2"}, "[6]": {"tested_on": "plasma PK (pyruvate kinase)", "assay": "Plasma PK", "details": "300 mg/Kg i.p. three times weekly for 30 days, day 28 ex ovo"}, "[7]": {"details": "200 mg/Kg i.p. daily for 30 days, day 45 ex ovo"}, "[8]": {"details": "200 mg/Kg i.p. daily for 30 days, day 84 ex ovo"}, "[9]": {"details": "300 mg/Kg i.p. daily for 30 days, day 45 ex ovo"}, "[10]": {"details": "300 mg/Kg i.p. three times weekly for 30 days, day 45 ex ovo"}, "[11]": {"details": "300 mg/Kg i.p. three times weekly for 30 days, day 84 ex ovo"}, "[12]": {"details": "Exp. 2, 40 mg/Kg i.p. daily, day 42-48"}, "[13]": {"details": "Table VII, oral 200 mg/Kg, 60 days, day 35 ex ovo"}, "[14]": {"details": "oral 450 mg/Kg daily for 45 days, day 28 ex ovo"}, "[15]": {"details": "oral 600 mg/Kg daily, day 28 ex ovo"}, "[16]": {"details": "oral 1 g/Kg daily, day 35 ex ovo"}}, "data": [{"smiles": "CC(C)Nc1ncccn1.O=P(O)(O)O", "note": "[IAPP, 2-isopropylaminopyrimidine orthophosphate]", "values": [{"measurement": "AChE", "setting": "[1]; [7]", "value": 60.4}, {"measurement": "AChE, % change from control", "setting": "[1]; [7]", "value": -29, "unit": "%"}, {"measurement": "AChE", "setting": "[1]; [8]", "value": 87}, {"measurement": "AChE, % change from control", "setting": "[1]; [8]", "value": -46, "unit": "%"}, {"measurement": "AChE", "setting": "[1]; [9]", "value": 48.4}, {"measurement": "AChE, % change from control", "setting": "[1]; [9]", "value": -43, "unit": "%"}, {"measurement": "AChE", "setting": "[1]; [10]", "value": 62.9}, {"measurement": "AChE, % change from control", "setting": "[1]; [10]", "value": -27, "unit": "%"}, {"measurement": "AChE", "setting": "[1]; [11]", "value": 90}, {"measurement": "AChE, % change from control", "setting": "[1]; [11]", "value": -45, "unit": "%"}, {"measurement": "% AChE Change vs untreated dystrophic controls", "setting": "[1]; [12]", "value": -55, "unit": "%"}, {"measurement": "AChE", "setting": "[1]; [13]", "value": 77.8}, {"measurement": "AChE, % change from control", "setting": "[1]; [13]", "value": -6, "unit": "%"}, {"measurement": "AChE", "setting": "[1]; [14]", "value": 520}, {"measurement": "AChE, % change from control", "setting": "[1]; [14]", "value": -12, "unit": "%"}, {"measurement": "AChE", "setting": "[1]; [15]", "value": 46.9}, {"measurement": "AChE, % change from control", "setting": "[1]; [15]", "value": -21, "unit": "%"}, {"measurement": "AChE", "setting": "[1]; [16]", "value": 53.9}, {"measurement": "AChE, % change from control", "setting": "[1]; [16]", "value": -47, "unit": "%"}, {"measurement": "Weight loss (after 30 days' treatment)", "setting": "[2]; 200 mg/Kg i.p. daily, level at which it became significant", "value": "twenty"}, {"measurement": "% Weight Change vs untreated dystrophic controls", "setting": "[2]; Exp. 2, 40 mg/Kg i.p. daily, day 7-13", "value": -0.04, "unit": "%"}, {"measurement": "% Weight Change vs untreated dystrophic controls", "setting": "[2]; Exp. 2, 40 mg/Kg i.p. daily, day 14-20", "value": -0.07, "unit": "%"}, {"measurement": "% Weight Change vs untreated dystrophic controls", "setting": "[2]; Exp. 2, 40 mg/Kg i.p. daily, day 21-27", "value": -0.07, "unit": "%"}, {"measurement": "% Weight Change vs untreated dystrophic controls", "setting": "[2]; Exp. 2, 40 mg/Kg i.p. daily, day 28-34", "value": -0.15, "unit": "%"}, {"measurement": "% Weight Change vs untreated dystrophic controls", "setting": "[2]; Exp. 2, 40 mg/Kg i.p. daily, day 35-41", "value": -0.08, "unit": "%"}, {"measurement": "% Weight Change vs untreated dystrophic controls", "setting": "[2]; [12]", "value": -0.04, "unit": "%"}, {"measurement": "% Weight Change vs untreated dystrophic controls", "setting": "[2]; Exp. 2, 40 mg/Kg i.p. daily, day 49-55", "value": -0.04, "unit": "%"}, {"measurement": "% Weight Change vs untreated dystrophic controls", "setting": "[2]; Exp. 2, 40 mg/Kg i.p. daily, day 56-62", "value": -0.05, "unit": "%"}, {"measurement": "% Weight Change vs untreated dystrophic controls", "setting": "[2]; Exp. 2, 40 mg/Kg i.p. daily, day 63-71", "value": -0.01, "unit": "%"}, {"measurement": "Toxicity as evidenced by weight loss", "setting": "[2]; Exp. 3, 70 mg/Kg", "value": "detectable toxicity as evidenced by weight loss, but this is still moderate"}, {"measurement": "% Weight Change vs untreated dystrophic controls", "setting": "[2]; Exp. 3, 70 mg/Kg i.p. daily, day 7-13", "value": 0, "unit": "%"}, {"measurement": "% Weight Change vs untreated dystrophic controls", "setting": "[2]; Exp. 3, 70 mg/Kg i.p. daily, day 14-20", "value": -2, "unit": "%"}, {"measurement": "% Weight Change vs untreated dystrophic controls", "setting": "[2]; Exp. 3, 70 mg/Kg i.p. daily, day 21-27", "value": -3, "unit": "%"}, {"measurement": "% Weight Change vs untreated dystrophic controls", "setting": "[2]; Exp. 3, 70 mg/Kg i.p. daily, day 28-34", "value": -9, "unit": "%"}, {"measurement": "Maximum Weight Loss", "setting": "[2]; Table VII, oral 200 mg/Kg, 60 days", "value": 3, "unit": "%"}, {"measurement": "Weight loss / toxic symptoms", "setting": "[2]; initial single injection 100 mg/Kg, over 7 days", "value": "no weight loss over 7 days, nor any other toxic symptoms"}, {"measurement": "Number of flips at which animal fatigued", "setting": "dystrophic chickens 413 [3]; 413D experimental animal, day 25, 50 mg/Kg", "value": 19, "unit": "flips"}, {"measurement": "Flip test outcome", "setting": "dystrophic chickens 413 [3]; dystrophic drug injected chickens, 50 mg/Kg", "value": "able to pass the flip test"}, {"measurement": "% Full Complexes Microtubules", "setting": "[4]; 413B, Subgroup A, after 4 injections of 50 mg/Kg, 413A control 31%", "value": 58, "unit": "%"}, {"measurement": "% Full Complexes Microtubules", "setting": "[4]; 413C, Subgroup B, after 8 injections of 50 mg/Kg", "value": 60, "unit": "%"}, {"measurement": "% Full Complexes Microtubules", "setting": "[4]; 413D, Subgroup C, after 10 injections of 50 mg/Kg", "value": 74, "unit": "%"}, {"measurement": "Toxic side effect", "setting": "dystrophic chickens 413 [5]; Exp. 4, 50 mg/Kg injected, normal and dystrophic chickens", "value": "There did not appear to be a toxic side effect"}, {"measurement": "Weight", "setting": "dystrophic chickens 413 [5]; Exp. 4, 413B, day 1", "value": 48.3, "unit": "GRAMS"}, {"measurement": "Weight", "setting": "dystrophic chickens 413 [5]; Exp. 4, 413B, day 4", "value": 51.2, "unit": "GRAMS"}, {"measurement": "Weight", "setting": "dystrophic chickens 413 [5]; Exp. 4, 413B, day 7", "value": 56.7, "unit": "GRAMS"}, {"measurement": "Weight", "setting": "dystrophic chickens 413 [5]; Exp. 4, 413B, day 9", "value": 58.1, "unit": "GRAMS"}, {"measurement": "Weight", "setting": "dystrophic chickens 413 [5]; Exp. 4, 413C, day 1", "value": 36.9, "unit": "GRAMS"}, {"measurement": "Weight", "setting": "dystrophic chickens 413 [5]; Exp. 4, 413C, day 4", "value": 44.4, "unit": "GRAMS"}, {"measurement": "Weight", "setting": "dystrophic chickens 413 [5]; Exp. 4, 413C, day 7", "value": 49.9, "unit": "GRAMS"}, {"measurement": "Weight", "setting": "dystrophic chickens 413 [5]; Exp. 4, 413C, day 9", "value": 45.2, "unit": "GRAMS"}, {"measurement": "Weight", "setting": "dystrophic chickens 413 [5]; Exp. 4, 413C, day 11", "value": 53.2, "unit": "GRAMS"}, {"measurement": "Weight", "setting": "dystrophic chickens 413 [5]; Exp. 4, 413C, day 14", "value": 77.4, "unit": "GRAMS"}, {"measurement": "Weight", "setting": "dystrophic chickens 413 [5]; Exp. 4, 413C, day 16", "value": 90.5, "unit": "GRAMS"}, {"measurement": "Weight", "setting": "dystrophic chickens 413 [5]; Exp. 4, 413C, day 17", "value": 104.8, "unit": "GRAMS"}, {"measurement": "Weight", "setting": "dystrophic chickens 413 [5]; Exp. 4, 413D, day 1", "value": 44.5, "unit": "GRAMS"}, {"measurement": "Weight", "setting": "dystrophic chickens 413 [5]; Exp. 4, 413D, day 4", "value": 51.2, "unit": "GRAMS"}, {"measurement": "Weight", "setting": "dystrophic chickens 413 [5]; Exp. 4, 413D, day 7", "value": 59.8, "unit": "GRAMS"}, {"measurement": "Weight", "setting": "dystrophic chickens 413 [5]; Exp. 4, 413D, day 9", "value": 56.5, "unit": "GRAMS"}, {"measurement": "Weight", "setting": "dystrophic chickens 413 [5]; Exp. 4, 413D, day 11", "value": 65.4, "unit": "GRAMS"}, {"measurement": "Weight", "setting": "dystrophic chickens 413 [5]; Exp. 4, 413D, day 14", "value": 93.7, "unit": "GRAMS"}, {"measurement": "Weight", "setting": "dystrophic chickens 413 [5]; Exp. 4, 413D, day 16", "value": 115.1, "unit": "GRAMS"}, {"measurement": "Weight", "setting": "dystrophic chickens 413 [5]; Exp. 4, 413D, day 20", "value": 161.3, "unit": "GRAMS"}, {"measurement": "Weight", "setting": "dystrophic chickens 413 [5]; Exp. 4, 413D, day 22", "value": 210.2, "unit": "GRAMS"}, {"measurement": "Weight", "setting": "dystrophic chickens 413 [5]; Exp. 4, 413D, day 25", "value": 240.7, "unit": "GRAMS"}, {"measurement": "PK", "setting": "[6]", "value": 499}]}]}
